# Data reported in ChEMBL document CHEMBL1154364, “2-Benzimidazolyl-9-(chroman-4-yl)-purinone derivatives as JAK3 inhibitors” (Bioorg Med Chem Lett, 2009).
# Target: Tyrosine-protein kinase JAK2 (Homo sapiens, UniProt O60674)
# Sequence (O60674 whole entry): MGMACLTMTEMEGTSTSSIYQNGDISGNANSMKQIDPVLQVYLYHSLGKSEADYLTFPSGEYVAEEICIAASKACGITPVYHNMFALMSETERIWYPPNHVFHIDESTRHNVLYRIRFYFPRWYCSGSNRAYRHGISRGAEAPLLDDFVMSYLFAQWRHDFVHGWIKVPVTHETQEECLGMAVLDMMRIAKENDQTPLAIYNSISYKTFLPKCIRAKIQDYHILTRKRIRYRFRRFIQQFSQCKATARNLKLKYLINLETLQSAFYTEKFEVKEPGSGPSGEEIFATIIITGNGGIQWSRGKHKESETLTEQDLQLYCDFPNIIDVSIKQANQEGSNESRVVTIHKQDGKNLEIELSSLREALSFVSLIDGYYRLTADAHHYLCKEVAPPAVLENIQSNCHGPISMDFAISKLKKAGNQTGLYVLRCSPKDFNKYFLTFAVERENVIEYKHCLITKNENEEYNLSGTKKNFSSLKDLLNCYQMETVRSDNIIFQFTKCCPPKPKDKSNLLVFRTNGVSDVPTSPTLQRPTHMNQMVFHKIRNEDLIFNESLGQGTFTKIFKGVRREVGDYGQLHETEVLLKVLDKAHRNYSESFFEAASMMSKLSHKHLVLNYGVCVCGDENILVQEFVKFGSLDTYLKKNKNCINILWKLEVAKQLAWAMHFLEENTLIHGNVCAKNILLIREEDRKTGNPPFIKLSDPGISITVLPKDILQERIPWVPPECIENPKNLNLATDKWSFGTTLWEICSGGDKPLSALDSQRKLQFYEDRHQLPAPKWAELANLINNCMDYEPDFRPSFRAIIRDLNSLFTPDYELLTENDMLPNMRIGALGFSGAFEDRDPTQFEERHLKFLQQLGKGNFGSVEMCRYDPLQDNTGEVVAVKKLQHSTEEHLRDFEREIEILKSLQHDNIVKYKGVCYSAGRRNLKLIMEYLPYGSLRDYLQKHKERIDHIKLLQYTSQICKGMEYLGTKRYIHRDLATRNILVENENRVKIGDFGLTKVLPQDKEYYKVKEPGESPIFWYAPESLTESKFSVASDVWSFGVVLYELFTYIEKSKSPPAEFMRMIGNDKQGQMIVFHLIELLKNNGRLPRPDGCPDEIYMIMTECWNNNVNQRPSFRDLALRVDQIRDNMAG
# Description: Inhibition of human JAK2 (532-1132) by time resolved fluorescence assay
row,IC50 [nM],SMILES
1,28,N#Cc1ccc2ncn(-c3ncc4[nH]c(=O)n(Cc5c(F)cccc5F)c4n3)c2c1
2,470,N#Cc1ccc2ncn(-c3ncc4[nH]c(=O)n(C5CCOCC5)c4n3)c2c1
3,270,N#Cc1ccc2ncn(-c3ncc4[nH]c(=O)n(Cc5cccc(F)c5F)c4n3)c2c1
4,320,O=c1[nH]c2cnc(-n3cnc4ccc(F)cc43)nc2n1Cc1c(F)cccc1F
5,56,O=c1[nH]c2cnc(-n3cnc4ccc(Cl)cc43)nc2n1[C@@H]1CCOc2c(F)cccc21
6,1000,O=c1[nH]c2cnc(-n3cnc4ccc(F)cc43)nc2n1Cc1cccc(F)c1F
7,3400,O=c1[nH]c2cnc(-n3cnc4ccc(F)cc43)nc2n1C1CCOCC1
8,500,O=c1[nH]c2cnc(-n3cnc4ccccc43)nc2n1C1CCOc2ccc(Cl)cc21 (racemic)
9,83,O=c1[nH]c2cnc(-n3cnc4ccccc43)nc2n1C1CCOc2ccc(F)cc21 (racemic)

# Further lines, the compound ahead of its results:
row,SMILES,IC50 [nM]
1,N#Cc1ccc2ncn(-c3ncc4[nH]c(=O)n(Cc5c(Cl)cccc5Cl)c4n3)c2c1,1550
2,N#Cc1ccc2ncn(-c3ncc4[nH]c(=O)n([C@@H]5CCOc6c(F)cccc65)c4n3)c2c1,5
3,O=c1[nH]c2cnc(-n3cnc4ccc(Cl)cc43)nc2n1C1CCOCC1,393
4,O=c1[nH]c2cnc(-n3cnc4ccccc43)nc2n1[C@@H]1CCOc2c(F)cccc21,333
5,O=c1[nH]c2cnc(-n3cnc4ccccc43)nc2n1[C@H]1CCOc2c(F)cccc21,7000
6,O=c1[nH]c2cnc(-n3cnc4cc(C(F)(F)F)ccc43)nc2n1C1CCOCC1,1800
7,O=c1[nH]c2cnc(-n3cnc4ccc(C(F)(F)F)cc43)nc2n1C1CCOCC1,560
8,O=c1[nH]c2cnc(-n3cnc4ccccc43)nc2n1C1CCOc2ccccc21 (racemic),170
9,O=c1[nH]c2cnc(-n3cnc4ccccc43)nc2n1C1CCOc2cccc(F)c21 (racemic),97
10,O=c1[nH]c2cnc(-n3cnc4ccccc43)nc2n1C1CCOc2cc(F)ccc21 (racemic),95
11,O=c1[nH]c2cnc(-n3cnc4ccccc43)nc2n1C1CCOc2c(F)cccc21 (racemic),285
